Reference: US5512574A, “Quinuclidine and azabicyclo 2.2.1! heptane pyrazinyl ethers as muscarinic agonists” (American Home Products Corporation, priority 1995, dated 1996)
pEC50, pKi: −log10 of the molar value. Read-outs that look alike come from different tables or passages of the source.

Columns and labels:
[1] = target: T1, M1 acetylcholine receptors (Homo sapiens, UniProt P11229); test: stimulation of phosphoinositide (PI) hydrolysis in CHO cells expressing M1 acetylcholine receptors; type: cell-based; settings: for Emax: CHO, 1 h; for pEC50: read-out: m1 agonism [P.I.] EC50; for m1 CHO @ 30 × Ki % Carbachol / m1 CHO % Carbachol (at Ki): PI hydrolysis, 60 min; for m1 CHO @ 30 × Ki % Carbachol: at 30 × Ki
T1 sequence (P11229 1-460): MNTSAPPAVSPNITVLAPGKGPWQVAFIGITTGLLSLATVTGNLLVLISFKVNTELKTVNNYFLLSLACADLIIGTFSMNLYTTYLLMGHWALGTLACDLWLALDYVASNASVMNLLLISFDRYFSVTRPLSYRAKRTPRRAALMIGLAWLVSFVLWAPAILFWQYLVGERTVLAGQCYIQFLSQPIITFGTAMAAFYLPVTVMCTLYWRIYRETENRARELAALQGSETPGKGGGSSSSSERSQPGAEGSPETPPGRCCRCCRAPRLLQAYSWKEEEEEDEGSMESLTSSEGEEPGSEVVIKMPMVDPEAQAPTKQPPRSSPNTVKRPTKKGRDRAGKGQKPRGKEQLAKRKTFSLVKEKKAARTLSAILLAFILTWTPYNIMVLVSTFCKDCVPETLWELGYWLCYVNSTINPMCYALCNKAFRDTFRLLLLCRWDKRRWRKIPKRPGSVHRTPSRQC
Protocol: (§1) The tubes are incubated for one hour at 37° C. The reaction is quenched with chloroform and the phosphatidyl inositols are extracted with methanol and chloroform. Phase separation is assured with the addition of methanol and water followed by centrifugation. The tritiated inositol phosphates are recovered on BioRad AG 1-X8 anion exchange resin in the formate cycle. After washing the resin with water and myo-inositol, the inositol phosphates are eluted with ammonium formate/formic acid, collected and subjected to liquid scintillation spectroscopy.
(§2) Cloned human receptors in CHO cells were used in these studies.

[2] = target: T2, m2 muscarinic receptor (Homo sapiens, UniProt P08172); test: biochemical; type: binding
T2 sequence (P08172 1-466): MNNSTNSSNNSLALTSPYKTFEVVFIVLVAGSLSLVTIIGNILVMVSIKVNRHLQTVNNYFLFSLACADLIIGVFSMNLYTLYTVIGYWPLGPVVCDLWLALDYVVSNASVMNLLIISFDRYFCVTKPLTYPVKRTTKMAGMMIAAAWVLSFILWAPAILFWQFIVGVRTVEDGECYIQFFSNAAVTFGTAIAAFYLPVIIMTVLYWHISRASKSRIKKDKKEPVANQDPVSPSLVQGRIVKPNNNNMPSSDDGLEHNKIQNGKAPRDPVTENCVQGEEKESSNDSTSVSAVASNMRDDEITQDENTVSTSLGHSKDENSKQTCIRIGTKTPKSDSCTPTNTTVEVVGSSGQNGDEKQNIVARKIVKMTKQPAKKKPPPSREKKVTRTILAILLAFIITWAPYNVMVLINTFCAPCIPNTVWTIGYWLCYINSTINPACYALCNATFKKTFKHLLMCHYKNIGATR

[3] = target: T3, m1 muscarinic receptor (Homo sapiens, UniProt P11229); test: biochemical; type: binding; settings: for Ki: read-out: [3H]QNB Binding Ki(μM) m1
T3 sequence (P11229 1-460): T1 sequence (P11229 1-460)

[4] = target: M1 acetylcholine receptors (Homo sapiens, UniProt P11229); test: stimulation of phosphoinositide (PI) hydrolysis in CHO cells expressing M1 acetylcholine receptors; type: cell-based
Protocol: as §1, §2

[5] = target: m1 muscarinic receptor (Homo sapiens, UniProt P11229); test: biochemical; type: binding
[6] = target: T2, m2 muscarinic receptor; test: m2 agonism (cAMP) / functional selectivity; type: cell-based; settings: for pEC50: cAMP, m2; for Functional Selectivity-m2/m1: ratio of m2 (cAMP) EC50 to m1 (PI) EC50
Description: Such diseases include presenile and senile dementia (also known as Alzheimer's Disease and Senile Dementia of the Alzheimer Type, respectively), Huntington's Chorea, Tardive Dyskinesia, Hyperkinesia, Mania and Tourette's Syndrome. Alzheimer's Disease is a slowly progressive neurological disorder characterized by deficits in cognitive function including memory, attention, language and visual perception capabilities.
as §2

[7] = read-out: m1 CHO @ 30 × Ki % Carbachol, PI hydrolysis, m1 CHO, at 30 × Ki, percentage of mean carbachol value
[8] = read-out: [3H]QNB Binding Ki(μM) m2
[9] = m1, cloned human receptors in CHO cells
[10] = m2, cloned human receptors in CHO cells, read-out: [3H]QNB Binding Ki(μM) m2
[11] = read-out: m1 CHO % Carbachol (at Ki), PI hydrolysis, m1 CHO, at Ki, percentage of mean carbachol value
[12] = read-out: m1 CHO @ 30 × Ki % Carbachol
[13] = percentage of mean carbachol value
[14] = read-out: m1 CHO % Carbachol (at Ki)

In the case of `CCCCCCOc1nccnc1O[C@H]1CN2CC[C@@H]1C2` (relative stereo) [Example 1, (±)-(endo)-3-(3-Hexyloxy-pyrazin-2-yloxy)-1-aza-bicyclo 2.2.1!heptane], the Emax [1, 7] was 102%, the Ki [2, 8] was 0.02 µM and the Ki [3, 9] was 0.03 µM.
`CCCCCCSc1nccnc1O[C@H]1CN2CC[C@@H]1C2` (relative stereo) [Example 2, (endo)-3-(3-Hexylsulfanyl-pyrazin-2-yloxy)-1-aza-bicyclo 2.2.1!heptane] was tested, and the Emax [1, 7] was 97.1%, the Ki [2, 10] was 0.013 µM and the Ki [3, 9] was 0.0067 µM.
`CCCCCCSc1nccnc1O[C@@H]1CN2CC[C@@H]1C2` (relative stereo) [Example 6, (exo)-3-(3-Hexylsulfanyl-pyrazin-2-yloxy)-1-azabicyclo 2.2.1!heptane] showed an Emax [1, 11] of 104%, a Ki [2, 10] of 0.088 µM and a Ki [3, 9] of 0.123 µM.
For `CCCCCCOc1nccnc1S[C@@H]1CN2CC[C@@H]1C2` (relative stereo) [Example 11, (exo)-3-(3-Hexyloxy-pyrazin-2-ylsulfanyl)-1-azabicyclo 2.2.1!heptane], the Emax [1, 11] was 41.6% and the Ki [3, 9] was 0.292 µM.
Work on `CCCCCCSc1nccnc1S[C@@H]1CN2CC[C@@H]1C2` (relative stereo) [Example 12, (exo)-3-(3-Hexylsulfanyl-pyrazin-2-ylsulfanyl)-1-azabicyclo-2.2.1!heptane] yielded an Emax [1, 12] of 62%, a Ki [2, 8] of 0.064 µM and a Ki [3] of 0.03 µM.
Work on `CCCCCCOc1nccnc1O[C@H]1CN2CC[C@@H]1C2` (single isomer, unassigned) yielded a pEC50 [4] of 8.26 and a pKi [5] of 7.49.
`CCCCCCSc1nccnc1O[C@H]1CN2CC[C@@H]1C2` (single isomer, unassigned) [2(+), (+)-(endo)-3-(3-hexylsulfanyl-pyrazin-2-yloxy)-1-aza-bicyclo 2.2.1!heptane] was tested, and the Emax [1, 7] was 31.1%, the Ki [2, 10] was 0.063 µM and the Ki [3, 9] was 0.027 µM.
With `CCCCCCSc1nccnc1O[C@H]1CN2CC[C@@H]1C2` (single isomer, unassigned) [Example 2(-), (-)-(endo)-3-(3-hexylsulfanyl-pyrazin-2-yloxy)-1-aza-bicyclo 2.2.1!heptane] the pEC50 [6] was 7.80, the “Functional Selectivity-m2/m1” value [6] was 40 and the Emax [1, 11] was 46.5%. The pEC50 [1] was 9.40 and the Ki [2, 10] was 0.0045 µM.
For `CCCCCCOc1nccnc1O[C@H]1CN2CC[C@@H]1C2` (single isomer, unassigned) [Example 4], the Ki [2, 8] was 0.024 µM.
For `CCCCCCOc1nccnc1O[C@H]1CN2CC[C@@H]1C2` (single isomer, unassigned) [Example 5, (+)-endo-3-(3-Hexyloxy-pyrazin-2-yloxy)-1-azabicyclo 2.2.1!heptane], the “m1 CHO @ 30 × Ki % Carbachol” value [1, 13] was 51%, the Ki [2, 8] was 0.071 µM and the Ki [3, 9] was 0.083 µM.
`CCCCCCSc1nccnc1O[C@@H]1CN2CC[C@@H]1C2` (single isomer, unassigned) [Example 7, (+)-exo-3-(3-Hexylsulfanyl-pyrazin-2-yloxy)-1-azabicyclo 2.2.1!heptane] was tested, and the pEC50 [6] was 5.62, the “Functional Selectivity-m2/m1” value [6] was 240 and the “m1 CHO % Carbachol (at Ki)” value [1, 13] was 107.3%. It also gave a pEC50 [1] of 7.99 and a Ki [2, 10] of 0.059 µM.
`CCCCCCSc1nccnc1O[C@@H]1CN2CC[C@@H]1C2` (single isomer, unassigned) [Example 8, (-)-(exo)-3-(3-Hexylsulfanyl-pyrazin-2-yloxy)-1-azabicyclo 2.2.1!heptane] was tested, and the “m1 CHO % Carbachol (at Ki)” value [1, 13] was 44.2% and the Ki [2, 10] was 0.008 µM.
For `CCCCCCOc1nccnc1O[C@@H]1CN2CC[C@@H]1C2` (single isomer, unassigned) [Example 9, (-)-(exo)-3-(3-Hexyloxy-pyrazin-2-yloxy)-1-azabicyclo 2.2.1!heptane], the “m1 CHO @ 30 × Ki % Carbachol” value [1, 13] was 56% and the Ki [2, 8] was 0.774 µM.
`CCCCCCOc1nccnc1O[C@@H]1CN2CC[C@@H]1C2` (single isomer, unassigned) [Example 10, (+)-(exo)-3-(3-Hexyloxy-pyrazin-2-yloxy)-1-azabicyclo 2.2.1!heptane] was tested, and the “m1 CHO @ 30 × Ki % Carbachol” value [1, 13] was 9% and the Ki [2, 8] was 0.149 µM.
`CCCCCCSc1nccnc1SC1CN2CCC1CC2` (stereo not shown) [Example 13, 3-(3-Hexylsulfanyl-pyrazin-2-ylsulfanyl)-1-azabicyclo 2.2.2!octane] showed an Emax [1, 12] of 45.9% and a pKi [3] of 7.54.
In the case of `CCCCCCOc1nccnc1SC1CN2CCC1CC2` (stereo not shown) [Example 14, 3-(3-Hexyloxy-pyrazin-2-ylsulfanyl)-1-azabicyclo 2.2.2!octane], the Emax [1, 14] was 29.5% and the pKi [3] was 7.12.
With `CCCCCCOc1nccnc1OC1CN2CCC1CC2` (stereo not shown) [Example 15] the Emax [1, 14] was 59.6%, the Ki ([2]; [3H]QNB Binding Ki(μM) m2, m2, cloned human receptors in CHO cells) was 0.124 µM and the pKi [3] was 6.85.
